In patent US12258332B2, “ASGPR cell surface receptor binding compounds and conjugates” (Lycia Therapeutics, Inc., priority 2021, dated 2025):

Assays:
[1] = Pharmacokinetic study of OMA-linked compounds in mice, serum hIgG by ELISA; assay type: in vivo; conditions: IV 5 mg/kg, female C57BL/6 mice, up to 168 hours
Protocol: Pharmacokinetic (PK) studies were undertaken to determine the pharmacokinetic profile of various OMA linked example compounds (I-161-I-163).
Protocol: Female C57BL/6 mice are dosed via IV with 5 mg/kg of OMA-example compounds, and OMA-reference. Serum samples are collected at 0.083, 0.25, 0.5, 1, 2, 4, 8, 24, 48, 72, and 168 hours after dosing with 3 animals per timepoint.
Serum hIgG concentrations were measured by ELISA.

[2] = tested on: HepG2 cells; assay: Uptake of Alexa488-labelled target IgE bound to omalizumab (OMA) conjugates in HepG2 cells, flow cytometry; assay type: cell-based, human; conditions: omalizumab (anti-IgE) conjugate bound to IgE-Alexa488, equal molar ratios; 1 hour
Protocol: (§1) The omalizumab conjugates of Example 60 were bound to IgE-Alexa488 (prepared according to Example 62), as follows: equal molar ratios of omalizumab (anti-IgE) conjugate and IgE-Alexa488 were added in tissue culture media for 30 minutes at room temperature. The resulting anti-IgE conjugate:IgE antibody-Alexa488 compositions were added to HepG2 cells (100 k cells/50 ul per well, n=2), and Alexa488 fluorescence levels in the cells were measured at 1 hour by flow cytometry. As the fluorescently labelled target (IgE antibody) accumulates in cells, the fluorescence presents a way to measure total intracellular uptake by cells over time.
as §1, with “OMA Ab” for “The omalizumab”, “example compounds I-160-I-163 and I-141” for “Example 60”, “by adapting procedure in” for “according to”, “61),” for “62),”, “OMA(anti-IgE)” for “omalizumab (anti-IgE)”

[3] = tested on: IgE; assay: Pharmacodynamic study: clearance of target IgE by OMA conjugates in mice, serum hIgE by ELISA; assay type: in vivo, C57BL/6 mice; conditions: 0.1 mg/kg of OMA conjugate, IgE 1 mg/kg
Protocol: Protocol: Female C57BL/6 mice were IV dosed 1 mg/kg of IgE followed by 0.1, 0.3, 1, or 3 mg/kg of OMA-I-163 16 hours later. Serum samples were collected at 0 (pre-bleed), 1, 4, and 24 hours after OMA-I-163 dose with 3 animals per timepoint.
Serum hIgE and hIgG concentrations were measured by ELISA.
Protocol: Female C57BL/6 mice were IV dosed 1 mg/kg of IgE followed by 0.1 mg/kg of OMA-I-163, OMA-I-162, OMA-I-161, and OMA-I-160 16 hours later. Serum samples were collected at 0 (pre-bleed), 1, 4, and 24 hours after LYTAC dose with 3 animals per timepoint.
Serum concentrations were measured by Elisa.

Question: With `CC(=O)N[C@@H]1[C@@H](O)[C@@H](O)[C@@H](CO)O[C@H]1SCCC(=O)NCCCCCNC(=O)CCOCC(COCCC(=O)NCCCCCNC(=O)CCS[C@@H]1O[C@H](CO)[C@H](O)[C@H](O)[C@H]1NC(C)=O)(COCCC(=O)NCCCCCNC(=O)CCS[C@@H]1O[C@H](CO)[C@H](O)[C@H](O)[C@H]1NC(C)=O)NC(=O)CCCCCCCCCCC(=O)NCCN1C(=O)C=CC1=O` [Compound I-162] as the molecule, how does the “PK profile / clearance of OMA-linked compound (serum hIgG)” value [1] read?
Answer: distinct PK profiles from reference compound I-163

Question: And the “relative uptake activity of Alexa488 labeled-target IgE in HepG2 cells” value [2]?
Answer: most active anomeric position variants

Question: What about the “IgE clearance efficiency compared to reference OMA-I-163” value [3] of the same molecule?
Answer: clear IgE more efficiently than the reference compound
